This note sets out measurements from ChEMBL document CHEMBL1201862, “PubChem BioAssay data set” (2004).

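1) Cells in 96-well plates. 2) Compound, 48 h, 5 concentrations. 3) Linear interpolation between surrounding doses. 4) Unreached endpoint = highest concentration. Here, GI50 denotes the concentration required for 50% inhibition of growth.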 The source made the active and inactive calls. Cut-off read from the data, not from the text of the source: active = GI50 up to about 1.1 µM and inactive = higher.

Common to all, as to test: NCI anticancer screen, dose series, 48 h
Test [1] relates to NCI-H522.
The test system of test [2] is PC-3.
The test system of test [3] is DU-145.
In test [4] the test system is SF-268.
For test [5], the system named is MOLT-4.
The subject of test [6] is ACHN.
In test [7] the test system is SNB-19.
The test system of test [8] is RXF 393.
Test [9] relates to TK-10.
Test [10] has as its system NCI/ADR-RES.
The subject of test [11] is BT-549.
Test [12] deals with UACC-257.
Test [13] has as its system OVCAR-5.
The subject of test [14] is A549.
Test [15] concerns OVCAR-4.
Test [16] concerns Hs-578T.
In test [17] the test system is SF-295.
The test system of test [18] is OVCAR-8.
Test [19] relates to A498.
Test [20] deals with HCC 2998.

In the case of `NC1(P(=O)(O)O)CCCCC1`, the GI50 in test [1], in [2], in [3], in [4], in test [5] and in test [6] was > 100 µM (inactive) in each case. For the same molecule, the GI50 in [7], in test [8], in test [9], in test [10], in test [11] and in test [12] was > 100 µM (inactive) in each case. The GI50 in test [13], in test [14], in [15], in test [16], in test [17] and in test [18] was > 100 µM (inactive) throughout. In [19], the GI50 is > 100 µM (inactive).

With `Cc1nn(-c2ccccc2)c2c1CC(=O)Nc1ccccc1-2`, the GI50 in test [1] is 0.509 µM (active); in [2] it was 0.679 µM (active); in test [3] it was 2.65 µM (inactive); in test [4] it was 1.63 µM (inactive); in [5] it was 0.522 µM (active); in test [6] it was 1.05 µM (active). Besides, the GI50 was 2.55 µM (inactive) in test [7]; 0.313 µM (active) in test [8]; 0.566 µM (active) in test [9]; 0.413 µM (active) in [10]; 0.687 µM (active) in test [11]; 0.555 µM (active) in test [12]. For the same molecule, the GI50 is 4.82 µM (inactive) in [13]; 1.61 µM (inactive) in test [14]; 18.5 µM (inactive) in test [15]; 0.522 µM (active) in [16]; 0.318 µM (active) in test [17]; 2.06 µM (inactive) in [18]. In addition, the GI50 in test [19] was 1.59 µM (inactive).

Take `C/C(=N/NC(=S)N1CCCCC1)c1cccc(/C(C)=N\NC(=S)N2CCCCC2)n1`: the GI50 in test [1] is 1.77 µM (inactive); in test [2] it was 1.65 µM (inactive); in test [3], 2.23 µM (inactive); in test [4], 3.22 µM (inactive); in test [5], 2.4 µM (inactive); in test [6] it was 1.46 µM (inactive). Moreover, the GI50 in [7] is 2.47 µM (inactive); in test [8], 2.26 µM (inactive); in [9], 1.8 µM (inactive); in [10] it was 2.06 µM (inactive); in test [11] it was 1.92 µM (inactive); in test [12], 2.85 µM (inactive). Also, the GI50 in test [13] is 0.423 µM (active); in test [14] it was 3 µM (inactive); in test [16], 2.38 µM (inactive); in test [17], 1.95 µM (inactive); in test [20] it was 2.33 µM (inactive); in test [18], 1.67 µM (inactive). Also, the GI50 in test [19] was 1.69 µM (inactive).

On to `CC1(C)OC2COC(c3n[nH]c4c(=O)[nH]c(=O)[nH]c34)C2O1` (centres undefined), for which the GI50 in [1], in test [2], in test [3], in [4], in test [5] and in test [6] was > 100 µM (inactive) each time. Further, the GI50 in test [7], in [8], in test [9], in test [10], in [11] and in test [12] was > 100 µM (inactive) throughout. The GI50 in test [13], in [14], in test [15], in [16], in test [17] and in test [18] was > 100 µM (inactive) in each case. The GI50 in test [19] is > 100 µM (inactive).

Consider `CCCCCCc1nn2c(-c3ccc(C)cc3)nnc2s1`, for which the GI50 in test [1] is 67.3 µM (inactive); in [2], 56.1 µM (inactive); in [3], > 100 µM (inactive); in test [4] it was > 100 µM (inactive); in test [5], 46.2 µM (inactive); in [6], > 100 µM (inactive). The GI50 was > 100 µM (inactive) in test [7]; 77.8 µM (inactive) in test [8]; > 100 µM (inactive) in test [9]; > 100 µM (inactive) in test [10]; > 100 µM (inactive) in test [11]; 42.1 µM (inactive) in test [12]. Moreover, the GI50 in [13] was > 100 µM (inactive); in test [14], > 100 µM (inactive); in test [15] it was > 100 µM (inactive); in [16], > 100 µM (inactive); in test [17], > 100 µM (inactive); in test [18], 68.9 µM (inactive). The GI50 in test [19] was > 100 µM (inactive).

As to `O=[N+]([O-])/C=C/c1cn(CCCCCCCCCCCCn2cc(/C=C/[N+](=O)[O-])c3ccccc32)c2ccccc12`, the GI50 in test [1], in test [2], in test [3], in test [5], in test [6] and in test [9] was > 100 µM (inactive) throughout. For the same molecule, the GI50 in test [10], in test [11], in [12], in [13], in [14] and in test [15] was > 100 µM (inactive) in each case. For the same molecule, the GI50 in test [16], in test [20], in test [18] and in test [19] was > 100 µM (inactive) throughout.

Regarding `CC(C)(C)C(=O)CC1=Nc2ccccc2SC1(O)CC(=O)C(C)(C)C` (centres undefined), the GI50 in [1] was 13 µM (inactive); in [2], 22.5 µM (inactive); in test [3], 25.1 µM (inactive); in test [4], 25.8 µM (inactive); in [5], 3.48 µM (inactive); in [6], 23.2 µM (inactive). Besides, the GI50 in test [7] was 35.6 µM (inactive); in test [8], 23.5 µM (inactive); in [9], 64 µM (inactive); in test [10], 21.9 µM (inactive); in [11], 15.7 µM (inactive); in test [12] it was 37.1 µM (inactive). For the same molecule, the GI50 in test [13] is 19.8 µM (inactive); in test [14], 20.5 µM (inactive); in test [16] it was 20.1 µM (inactive); in [17], 24.8 µM (inactive); in [20], 14.8 µM (inactive); in test [18], 21.9 µM (inactive). In addition, the GI50 in test [19] is > 100 µM (inactive).

In the case of `O=C1CSC(/C=C/c2ccccc2)N1c1ccc(-c2ccc(-n3c(-c4ccccc4)nc4ccccc4c3=O)cc2)cc1` (centres undefined), the GI50 in test [1] was 17.8 µM (inactive); in [2], 22.2 µM (inactive); in test [3], 24.7 µM (inactive); in [4], 35.6 µM (inactive); in test [5], 15.7 µM (inactive); in test [6], 23.6 µM (inactive). In addition, the GI50 was 21.8 µM (inactive) in test [7]; 39.5 µM (inactive) in test [9]; 21.1 µM (inactive) in test [10]; 17.2 µM (inactive) in test [11]; 30.3 µM (inactive) in [12]; 6.04 µM (inactive) in test [13]. Besides, the GI50 in test [14] was 24 µM (inactive); in test [15], 15.8 µM (inactive); in test [16], > 10 µM (inactive); in [17] it was 20.1 µM (inactive); in test [20] it was 66.2 µM (inactive); in [18], 25.1 µM (inactive). Further, in test [19], the GI50 was 42.2 µM (inactive).

As to `COc1c(C(C)(C)C)cc(CC2C(=O)C=CC2=O)cc1C(C)(C)C`, the GI50 in [1] is 2.25 µM (inactive); in test [2] it was 15.8 µM (inactive); in [3] it was 6.53 µM (inactive); in test [4] it was 19.1 µM (inactive); in [5], 2.93 µM (inactive); in test [6] it was 8.47 µM (inactive). For the same molecule, the GI50 is 19.1 µM (inactive) in [7]; 14.8 µM (inactive) in test [8]; 5.92 µM (inactive) in [9]; 32 µM (inactive) in test [10]; 23.8 µM (inactive) in test [11]; 17.5 µM (inactive) in test [12]. For the same molecule, the GI50 in test [13] is 18.3 µM (inactive); in [14] it was 24.3 µM (inactive); in [15] it was 21.2 µM (inactive); in [16] it was 27 µM (inactive); in test [17], 20.2 µM (inactive); in [18], 9.68 µM (inactive). Further, the GI50 in test [19] was 18 µM (inactive).

For `CC(C)(C)OC(=O)N1C(c2cccnc2)=CC[C@H]2C3CC=C(c4cccnc4)[C@@]3(C)CC[C@@H]21` (some centres undefined), the GI50 in test [1] was 2.92 µM (inactive); in test [2], 4.6 µM (inactive); in [3] it was 4.76 µM (inactive); in [4], 2.9 µM (inactive); in test [5], 2.54 µM (inactive); in test [6], 3.46 µM (inactive). Also, the GI50 in [7] is 4.83 µM (inactive); in test [8], 3.32 µM (inactive); in test [9], 4.22 µM (inactive); in [10], 8.45 µM (inactive); in [11] it was 4.53 µM (inactive); in [12], 3.23 µM (inactive). Further, the GI50 in [13] was 11.9 µM (inactive); in test [14], 3.37 µM (inactive); in test [15], 5.09 µM (inactive); in [16], 5.64 µM (inactive); in test [17], 3.13 µM (inactive); in [18], 4.02 µM (inactive). For the same molecule, in [19], the GI50 is 5.81 µM (inactive).

Consider `Cc1ncc([N+](=O)[O-])n1CCNC(=O)CCCCn1ccnc1[N+](=O)[O-]`, for which the GI50 in test [1] is > 100 µM (inactive); in [2] it was > 100 µM (inactive); in test [3] it was > 10 µM (inactive); in [4], > 100 µM (inactive); in test [5] it was > 100 µM (inactive); in test [6] it was > 100 µM (inactive). Further, the GI50 in test [7], in test [10], in [11], in [12], in test [13] and in [14] was > 100 µM (inactive) in each case. The GI50 in test [16], in test [17], in test [20], in test [18] and in test [19] was > 100 µM (inactive) in each case.
